From patent publication US20150284347A1, “NEW BENZENE SULFONAMIDE THIAZOLE COMPOUNDS” (INSERM (INSTITUT NATIONAL DE LA SANTÉ ET DE LA RECHERCHE …, priority 2012, published 2015)

Tested on: melanoma cells resistant to dabrafenib
Experiment: Trypan blue cell viability, melanoma cells resistant to dabrafenib
Format: cell-based, human
Details: patient melanoma cells resistant to dabrafenib, FIG. 5
Procedure: The measure of cell viability was performed in the same way as for FIG. 1. Results are expressed as percentage of cells alive relatively to the number of living cells in the presence of DMSO, which is a negative control
Cells were seeded in 6-well plates (60000 cells/well), depleted and incubated with compounds for the times indicated. Then cells were detached in the presence of 2000 of HyQTase (Thermo) and 2 ml of RPMI 1640 Glutamax (Gibco) was added to the cell solution. 100 of this solution was stained for 1 minute with 100 of 0.4% trypan blue before counting with a Malassez chamber.
Melanoma cells resistant to dabrafenib wee prepared from patients treated and presented a resistance to dabrafenib. dabrafenib, [HA15], [SR47] and [SR50] were tested on these resistant cells, in order to determine their activity on cell viability of resistant melanoma cells, as illustrated in FIG. 5.

## CC(=O)Nc1nc(-c2cccc(NS(=O)(=O)c3cccc4c(N(C)C)cccc34)c2)cs1 [HA15, N-(4-(3-(5-(dimethylamino)naphthalene-1-sulfonamido)phenyl)thiazol-2-yl)acetamide]
  cell viability of resistant melanoma cells: inhibit cell viability of resistant melanoma cells
